Test [1] deals with T1, GLP-1 receptors (Homo sapiens, UniProt P43220).
T1 construct: expressed in transfected cells; host or cells: CHO (CHO/GLP-1R)
In words: In-vitro activity: cAMP increase in CHO/GLP-1R cells. Conditions: CHO/GLP-1R cell line; cAMP measured at varying concentrations, EC50 values compared; control Byetta = 100. It is filed as cell-based. The protocol: To measure the efficacy of long acting preparation of exendin-4 by pegylation and pegylation site, a method for measuring the in-vitro activity was used. The measurement of in-vitro activity of GLP-1 is a method for measuring whether cAMP's in the cell was increased after treatment of GLP-1 to CHO cell lines to which GLP-1 receptors was cloned. Specifically, CHO/GLP-1R, a cell line in which […], was treated with GLP-1, exendin-4 and test materials described in Table 1 at varying concentrations.

In test [2] the target is GLP-1 receptor (CHO/GLP-1R cell line). The experiment in a line: cell-based or functional assay.

Sequence of Byetta (Eli Lilly) (P26349 48-86): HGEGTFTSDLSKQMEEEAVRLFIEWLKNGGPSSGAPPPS
T1 sequence (P43220 24-463): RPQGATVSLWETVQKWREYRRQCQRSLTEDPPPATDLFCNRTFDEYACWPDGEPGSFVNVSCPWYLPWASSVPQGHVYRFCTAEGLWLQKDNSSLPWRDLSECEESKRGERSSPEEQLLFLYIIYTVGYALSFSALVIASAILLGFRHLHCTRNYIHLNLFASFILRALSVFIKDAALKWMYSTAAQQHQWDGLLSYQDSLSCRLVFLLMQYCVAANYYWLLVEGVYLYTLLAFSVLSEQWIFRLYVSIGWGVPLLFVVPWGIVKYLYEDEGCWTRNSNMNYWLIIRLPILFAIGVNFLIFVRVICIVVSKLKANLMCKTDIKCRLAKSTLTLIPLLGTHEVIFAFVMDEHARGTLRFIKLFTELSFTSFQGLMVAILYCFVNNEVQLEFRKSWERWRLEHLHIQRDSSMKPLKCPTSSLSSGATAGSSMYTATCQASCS

With imidazo-acetyl-exendin-4 [CA-exendin-4], the “In-vitro activity (%)” value in test [1] is reported as 77%.

Consider “Byetta (Eli Lilly) (from UniProt P26349 48-86) (peptide)”, for which, in test [2], the In-vitro activity (%) (cAMP in CHO/GLP-1R cells, EC50 values compared) came to 100%.

The record behind these values is patent US8895281B2, “Method for preparing a site-specific physiologically active polypeptide conjugate” (Hanmi Science Co., Ltd, priority 2009, dated 2014).
